Experiments:
Format in all cases: in vivo
Helicoverpa armigera = experiment: Test Example 17: Mortality Test for Helicoverpa armigera (Comparative Test 1); details: 144 h, 3-instar larvae, after 6 days; for mortality at 3.3 ppm: concentration 3.3 ppm; for mortality at 10 ppm: concentration 10 ppm; for mortality at 33 ppm: concentration 33 ppm; for mortality at 100 ppm: concentration 100 ppm; for mortality at 0.1 ppm: concentration 0.1 ppm; for mortality at 0.3 ppm: concentration 0.3 ppm; for mortality at 1 ppm: concentration 1 ppm
Method: 10% emulsifiable concentrates of the compound of the present invention and a comparative compound were diluted with water containing a spreader to prepare drug solutions in a predetermined concentration. In these drug solutions, a leaf of Canarium album was immersed for about 10 seconds and was air-dried and then put into a petri dish. In the petri dish, seven 3-instar larvae of Helicoverpa armigera per petri dish were released and the petri dish was capped with a lid having pores and stored in a thermostat room of 25° C. After 2 days of the treatment, an artificial feed (1 cm^3) was added into the petri dish. The number of killed larvae after 6 days was measured and the mortality was calculated from the following calculation formula: Mortality (%)=(number of killed larvae/number of released larvae)×100. Here, the test was carried out with two replications.

[1] = tested on: Frankliniella occidentalis; experiment: Test Example 18: Mortality Test for Frankliniella occidentalis (Comparative Test 2); details: 48 h
Method: In a styrol cup having an inner diameter of 7 cm, a wet filtration paper was laid, and on the paper, a leaf of kidney bean cut out so as to have the same diameter as the inner diameter of the cup was laid, followed by inoculating ten 1 instar larvae of Frankliniella occidentalis per leaf to the leaf. 10% emulsifiable concentrates of the compound of the present invention and a comparative compound were diluted with water containing a spreader to prepare drug solutions in a predetermined concentration. The drug solutions were dusted using a rotary dusting tower in an amount of 2.5 mL per styrol cup, and the cup was capped and stored in a thermostat room of 25° C. The number of killed larvae after 2 days was measured and the mortality was calculated from the following calculation formula: Mortality (%)=(number of killed larvae/number of released larvae)×100. Here, the test was carried out with two replications.

Homona magnanima = experiment: Test Example 3: Mortality Test for Homona magnanima; details: 144 h
Method: (§1) A 10% emulsifiable concentrate of the compound of the present invention (depending on the type of the compound, a 10% wettable powder was subjected to the test) was diluted with water containing a spreader to prepare a drug solution in a concentration of 100 ppm. In this drug solution, a leaf of canarium album was immersed for about 10 seconds and was air-dried and then put into a petri dish. In the petri dish, five 2 instar larvae of Homona magnanima per petri dish were released and the petri dish was capped and stored in a thermostat room of 25° C. The number of killed larvae after 6 days was measured and the mortality was calculated from the same calculation formula as that in Test Example 1. Here, the test was carried out with two replications.

Liriomyza trifolii = experiment: Test Example 13: Mortality Test for Liriomyza trifolii; details: 144 h, drug solution 500 ppm, kidney bean leaf with eggs immersed, after 6 days
Method: as §1, with “500” for “100”, “kidney bean on which Liriomyza trifolii laid eggs (10 eggs/leaf) and which was cut out to a diameter of 7 cm” for “canarium album”, “laid on” for “put into”, “wet filtration paper laid in a styrol cup having an inner diameter” for “petri dish. In the petri dish, five 2 instar larvae”, “7 cm. The styrol cup” for “Homona magnanima per petri dish were released and the petri dish”

Plutella xylostella = experiment: Test Example 1: Mortality Test for Plutella xylostella; details: 144 h
Method: as §1, with “10” for “100”, “Plutella xylostella” for “Homona magnanima”, “following” for “same”, “formula: Mortality (%)=(number of killed larvae/number of released larvae)×100.” for “formula as that in Test Example 1.”

Spodoptera litura = experiment: Test Example 2: Mortality Test for Spodoptera litura; details: 144 h
Method: as §1, with “10” for “100”, “Spodoptera litura” for “Homona magnanima”

Myzus persicae = experiment: Test Example 10: Mortality Test for Myzus persicae; details: 144 h
Method: In a glass petri dish having an inner diameter of 3 cm, a wet absorbent cotton was laid, and on the cotton, a leaf of canarium album cut out so as to have the same diameter as the inner diameter of the petri dish was laid, followed by releasing 4 apterous imagines of Myzus persicae on the leaf. After one day, 10% emulsifiable concentrate of the compound of the present invention (depending on the type of the compound, a 10% wettable powder was subjected to the test) was diluted with water containing a spreader to prepare a drug solution in a concentration of 500 ppm. The drug solution was dusted using a rotary dusting tower (2.5 mg/cm^2) and the petri dish was capped and stored in a thermostat room of 25° C. The number of killed imagines after 6 days was measured and the mortality was calculated from the same calculation formula as that in Test Example 1. Here, the test was carried out with two replications.

Planococcus kraunhiae = experiment: Test Example 11: Mortality Test for Planococcus kraunhiae; details: 144 h
Method: In a styrol cup having an inner diameter of 7 cm, a wet filtration paper was laid, and on the paper, a leaf of kidney bean cut out so as to have the same diameter as the inner diameter of the cup was laid, followed by inoculating ten 1 instar larvae of Planococcus kraunhiae per leaf to the leaf. A 10% emulsifiable concentrate of the compound of the present invention (depending on the type of the compound, a 10% wettable powder was subjected to the test) was diluted with water containing a spreader to prepare a drug solution in a concentration of 500 ppm. The drug solution was dusted using a rotary dusting tower in an amount of 2.5 mL per styrol cup and the cup was capped and stored in a thermostat room of 25° C. The number of killed larvae after 6 days was measured and the mortality was calculated from the same calculation formula as that in Test Example 1. Here, the test was carried out with two replications.

Bemisia argentifolii = experiment: Test Example 9: Mortality Test for Bemisia argentifolii; details: in Solanum lycopersicum, 144 h
Method: In a styrol cup having an inner diameter of 7 cm, a wet filtration paper was laid, and on the paper, a cut-out leaf of tomato on which Bemisia argentifolii laid eggs (10 eggs/leaf) was laid. A 10% emulsifiable concentrate of the compound of the present invention (depending on the type of the compound, a 10% wettable powder was subjected to the test) was diluted with water containing a spreader to prepare a drug solution in a concentration of 500 ppm. The drug solution was dusted using a rotary dusting tower in an amount of 2.5 mL per styrol cup and the cup was capped and stored in a thermostat room of 25° C. The number of killed larvae after 6 days was measured and the mortality was calculated from the same calculation formula as that in Test Example 1. Here, the test was carried out with two replications.

SMILES: CNC(=O)NC(=O)c1ccc(C2=NOC(c3cc(Cl)cc(Cl)c3)(C(F)(F)F)C2)cc1C (centres unmarked) [Comparative compound A, reference compound]
- mortality at 3.3 ppm (Helicoverpa armigera): 21.4%
- mortality at 10 ppm (Helicoverpa armigera): 92.9%
- mortality at 33 ppm (Helicoverpa armigera): 100%
- mortality at 100 ppm (Helicoverpa armigera): 100%

SMILES: COC(=NC(=O)c1ccc(C2=NOC(c3cc(Cl)cc(Cl)c3)(C(F)(F)F)C2)cc1C)SC (centres unmarked) [Comparative compound B, reference compound]
- mortality at 3.3 ppm (Helicoverpa armigera): 35.7%
- mortality at 10 ppm (Helicoverpa armigera): 71.4%
- mortality at 33 ppm (Helicoverpa armigera): 85.7%
- mortality at 100 ppm (Helicoverpa armigera): 100%

SMILES: O=C(N[C@H]1C[C@@H]1c1ccccc1)c1ccc(C2=NOC(c3ccc(Cl)c(Cl)c3)(C(F)(F)F)C2)cc1 (some centres unmarked) [Comparative compound C]
- mortality at 3.3 ppm [1]: 0%
- mortality at 10 ppm [1]: 0%
- mortality at 33 ppm [1]: 0%
- mortality at 100 ppm [1]: 0%

SMILES: CCNC(=O)NC(=O)c1ccc(C2=NOC(c3cc(Cl)cc(Cl)c3)(C(F)(F)F)C2)cc1C (centres unmarked) [Comparative compound D]
- mortality at 3.3 ppm [1]: 0%
- mortality at 10 ppm [1]: 45.7%
- mortality at 33 ppm [1]: 100%
- mortality at 100 ppm [1]: 100%

SMILES: COC(N)=NC(=O)c1ccc(C2=NOC(c3cc(Cl)cc(Cl)c3)(C(F)(F)F)C2)cc1C (centres unmarked) [No. 2-003, N-[Amino(methoxy)methylidene]-4-[5-(3,5-dichlorophenyl)-5-trifluoromethyl-4,5-dihydroisoxazole-3-yl]-2-methyl benzoic acid amide]
- mortality at 100 ppm (Homona magnanima): ≥ 80%
- mortality at 0.1 ppm (Helicoverpa armigera): 57.1%
- mortality at 0.3 ppm (Helicoverpa armigera): 85.7%
- mortality at 1 ppm (Helicoverpa armigera): 100%
- mortality at 3.3 ppm (Helicoverpa armigera): 100%
- mortality at 10 ppm (Helicoverpa armigera): 100%

SMILES: CSC(N)=NC(=O)c1ccc(C2=NOC(c3cc(Cl)cc(Cl)c3)(C(F)(F)F)C2)cc1C (centres unmarked) [No. 2-010, N-(Amino(methylthio)methylidene)-4-(5-(3,5-dichlorophenyl)-5-trifluoromethyl-4,5-dihydroisoxazole-3-yl)-2-methyl benzoic acid amide]
- mortality at 500 ppm (Liriomyza trifolii): ≥ 80%
- mortality at 100 ppm (Homona magnanima): ≥ 80%

SMILES: CNC(N)=NC(=O)c1ccc(C2=NOC(c3cc(Cl)cc(Cl)c3)(C(F)(F)F)C2)cc1C (centres unmarked) [No. 2-012, N-[Amino(methylamino)methylidene]-4-[5-(3,5-dichlorophenyl)-5-trifluoromethyl-4,5-dihydroisoxazole-3-yl]-2-methyl benzoic acid amide]
- mortality at 100 ppm (Plutella xylostella): ≥ 80%
- mortality at 100 ppm (Spodoptera litura): ≥ 80%

SMILES: CNC(=NC(=O)c1ccc(C2=NOC(c3cc(Cl)cc(Cl)c3)(C(F)(F)F)C2)cc1C)OC (centres unmarked) [No. 3-001, N-[Methoxy(methylamino)methylidene]-4-[5-(3,5-dichlorophenyl)-5-trifluoromethyl-4,5-dihydroisoxazole-3-yl]-2-methyl benzoic acid amide]
- mortality at 500 ppm (Myzus persicae): ≥ 80%
- mortality at 500 ppm (Planococcus kraunhiae): ≥ 80%
- mortality at 500 ppm (Bemisia argentifolii): ≥ 80%
- mortality at 100 ppm (Homona magnanima): ≥ 80%
- mortality at 0.1 ppm (Helicoverpa armigera): 0%
- mortality at 0.3 ppm (Helicoverpa armigera): 21.4%
- mortality at 1 ppm (Helicoverpa armigera): 71.4%
- mortality at 3.3 ppm (Helicoverpa armigera): 100%
- mortality at 10 ppm (Helicoverpa armigera): 100%

Source: patent US8119671B2, “Isoxazoline-substituted benzamide compound and pest control agent” (Nissan Chemical Industries, Ltd., priority 2007, dated 2012)
